Measured values from ChEMBL document CHEMBL4196110, “Covalent Inhibitors of the TEC Family of Kinases and Their Methods of Use” (ACS Med Chem Lett, 2018).

Target: Tyrosine-protein kinase BTK (Homo sapiens, UniProt Q06187)
Test: Inhibition of BTK (unknown origin) using fluorescently labeled peptide as substrate after 3 hrs by microfluidic mobility shift assay

Chain of Tyrosine-protein kinase BTK (Q06187 whole entry): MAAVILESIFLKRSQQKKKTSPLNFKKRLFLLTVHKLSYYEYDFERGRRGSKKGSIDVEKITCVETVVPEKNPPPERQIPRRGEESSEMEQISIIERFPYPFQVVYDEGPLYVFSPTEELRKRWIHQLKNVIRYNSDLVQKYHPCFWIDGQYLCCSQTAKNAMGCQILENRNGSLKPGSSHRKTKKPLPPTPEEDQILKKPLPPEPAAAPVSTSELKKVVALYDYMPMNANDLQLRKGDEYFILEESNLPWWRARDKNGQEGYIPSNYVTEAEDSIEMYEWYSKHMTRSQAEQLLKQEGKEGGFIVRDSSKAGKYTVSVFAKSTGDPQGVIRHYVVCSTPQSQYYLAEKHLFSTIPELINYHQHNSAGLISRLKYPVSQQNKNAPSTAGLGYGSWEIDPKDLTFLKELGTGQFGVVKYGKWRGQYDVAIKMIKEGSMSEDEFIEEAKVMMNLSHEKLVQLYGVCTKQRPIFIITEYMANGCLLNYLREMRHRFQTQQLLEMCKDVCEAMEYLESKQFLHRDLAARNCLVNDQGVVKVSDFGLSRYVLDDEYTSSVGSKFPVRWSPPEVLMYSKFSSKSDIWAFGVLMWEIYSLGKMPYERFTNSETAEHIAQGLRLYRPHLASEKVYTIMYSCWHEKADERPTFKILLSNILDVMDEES

IC50 [nM] | Structure (SMILES)
0.62 | C=CC(=O)N1CC[C@]2(C1)C[C@H](n1c(NC(=O)c3ccc(-c4cnco4)s3)nc3cc(NC)ccc31)C2
0.63 | C=CC(=O)N1CC[C@]2(C1)C[C@H](n1c(NC(=O)c3ccc(-c4ccnc(N)c4)s3)nc3ccccc31)C2
4.4 | C=CC(=O)N1CC[C@]2(C1)C[C@H](n1c(NC(=O)c3ccc(C(F)F)s3)nc3cc(CN[C@@H](C)C(C)(C)C)ccc31)C2
